# Test results as given in PubChem BioAssay (NCI).
#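 A five-concentration, 48-hour dose response in 96-well plates underlies each endpoint, interpolated linearly between surrounding concentrations. TGI: total growth inhibition.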
# Assays:
# Experiment in all cases: growth of human tumour cells (NCI), 48 h
# [1] = system: BT-549 breast
# [2] = system: 786-0 renal
# [3] = system: OVCAR-5 ovarian
# [4] = system: A498 renal
# [5] = system: COLO 205 colon
# [6] = system: RPMI-8226 leukemia
# [7] = system: K-562 leukemia
# [8] = system: UACC-62 melanoma
# [9] = system: UACC-257 melanoma
# [10] = system: MALME-3M melanoma
# [11] = system: NCI-H522 lung
# [12] = system: SK-OV-3 ovarian
# [13] = system: SN12C renal
# [14] = system: OVCAR-8 ovarian
# [15] = system: EKVX NSCLC
# [16] = system: A549 NSCLC
# [17] = system: PC-3 prostate
# [18] = system: MDA-MB-231 breast
# [19] = system: SK-MEL-28 melanoma
# [20] = system: OVCAR-3 ovarian
# [21] = system: HOP-62 NSCLC
# [22] = system: M14 melanoma
# [23] = system: SNB-19 CNS
# [24] = system: SW-620 colon
# [25] = system: HL-60(TB) leukemia
# [26] = system: KM12 colon
# [27] = system: NCI/ADR-RES ovarian
# [28] = system: HCT-116 colon
# [29] = system: ACHN renal
# [30] = system: MOLT-4 leukemia
# [31] = system: HCT-15 colon
# [32] = system: UO-31 renal
# [33] = system: SF-268 CNS
# [34] = system: SF-539 CNS
# [35] = system: SK-MEL-2 melanoma
# [36] = system: NCI-H23 lung
# [37] = system: CAKI-1 renal
# [38] = system: SK-MEL-5 melanoma
# [39] = system: MDA-MB-435
# [40] = system: SNB-75 CNS
# [41] = system: T-47D breast
# [42] = system: HT29 colon
# [43] = system: RXF 393 renal
# [44] = system: SR leukemia
# [45] = system: IGROV1 ovarian
# [46] = system: HS 578T breast
# [47] = system: U251 CNS
# [48] = system: TK-10 renal
# [49] = system: DU-145 prostate
# [50] = system: NCI-H226 lung
# [51] = system: MCF7 breast
# [52] = system: NCI-H460 lung
# [53] = system: OVCAR-4 ovarian
# [54] = system: SF-295 CNS
# [55] = system: HOP-92 NSCLC
# [56] = system: LOX IMVI melanoma
structure (smiles),measurement,setting,value
S=C(Nc1cc(Cl)c(Cl)cc1Cl)SCc1ccccc1,TGI,[1],65.8 µM
same,TGI,[2],> 100 µM
same,TGI,[3],46.5 µM
same,TGI,[4],82.5 µM
same,TGI,[5],> 100 µM
same,TGI,[6],46.5 µM
same,TGI,[7],45.1 µM
same,TGI,[8],> 100 µM
same,TGI,[9],37.6 µM
same,TGI,[10],59.3 µM
same,TGI,[11],59.5 µM
same,TGI,[12],> 100 µM
same,TGI,[13],> 100 µM
same,TGI,[14],51.5 µM
same,TGI,[15],> 100 µM
same,TGI,[16],> 100 µM
same,TGI,[17],> 100 µM
same,TGI,[18],29.6 µM
same,TGI,[19],> 100 µM
same,TGI,[20],49.3 µM
same,TGI,[21],56 µM
same,TGI,[22],> 100 µM
same,TGI,[23],96.9 µM
same,TGI,[24],> 100 µM
same,TGI,[25],50.4 µM
same,TGI,[26],36.6 µM
same,TGI,[27],54.6 µM
same,TGI,[28],83 µM
same,TGI,[29],42.7 µM
same,TGI,[30],76.4 µM
same,TGI,[31],32.6 µM
same,TGI,[32],> 100 µM
same,TGI,[33],> 100 µM
same,TGI,[34],48.3 µM
same,TGI,[35],> 100 µM
same,TGI,[36],45.3 µM
same,TGI,[37],44 µM
same,TGI,[38],37.7 µM
same,TGI,[39],38.6 µM
same,TGI,[40],> 100 µM
same,TGI,[41],> 100 µM
same,TGI,[42],43.7 µM
same,TGI,[43],> 100 µM
same,TGI,[44],10.8 µM
same,TGI,[45],> 100 µM
same,TGI,[46],> 100 µM
same,TGI,[47],52.7 µM
same,TGI,[48],53.8 µM
same,TGI,[49],> 100 µM
same,TGI,[50],42.4 µM
same,TGI,[51],> 100 µM
same,TGI,[52],> 100 µM
same,TGI,[53],65.3 µM
same,TGI,[54],42.6 µM
same,TGI,[55],75.8 µM
CC(C)(C)OC(=O)N(CCNS(=O)(=O)c1cccc2cnccc12)CCC(=O)ON1C(=O)CCC1=O,TGI,[1],> 100 µM
same,TGI,[2],> 100 µM
same,TGI,[3],> 100 µM
same,TGI,[5],> 100 µM
same,TGI,[6],> 100 µM
same,TGI,[7],> 100 µM
same,TGI,[8],> 100 µM
same,TGI,[9],> 100 µM
same,TGI,[10],> 100 µM
same,TGI,[11],> 100 µM
same,TGI,[12],> 100 µM
same,TGI,[13],> 100 µM
same,TGI,[14],> 100 µM
same,TGI,[15],> 100 µM
same,TGI,[16],> 100 µM
same,TGI,[17],> 100 µM
same,TGI,[56],> 100 µM
same,TGI,[18],> 100 µM
same,TGI,[19],> 100 µM
same,TGI,[20],> 100 µM
same,TGI,[21],> 100 µM
same,TGI,[22],> 100 µM
same,TGI,[23],> 100 µM
same,TGI,[24],> 100 µM
same,TGI,[27],> 100 µM
same,TGI,[28],> 100 µM
same,TGI,[29],> 100 µM
same,TGI,[30],> 100 µM
same,TGI,[31],> 100 µM
same,TGI,[32],> 100 µM
same,TGI,[33],> 100 µM
same,TGI,[35],> 100 µM
same,TGI,[36],> 100 µM
same,TGI,[38],> 100 µM
same,TGI,[39],> 100 µM
same,TGI,[40],> 100 µM
same,TGI,[41],> 100 µM
same,TGI,[42],> 100 µM
same,TGI,[43],> 100 µM
same,TGI,[44],> 100 µM
same,TGI,[45],> 100 µM
same,TGI,[46],> 100 µM
same,TGI,[47],> 100 µM
same,TGI,[48],> 100 µM
same,TGI,[49],> 100 µM
same,TGI,[50],> 100 µM
same,TGI,[51],> 100 µM
same,TGI,[52],> 100 µM
same,TGI,[53],> 100 µM
same,TGI,[54],> 100 µM
same,TGI,[55],> 100 µM
